From BindingDB's records for doi:10.1016/s0960-894x(02)00064-1 (University of Lyon 1, 2002) come the findings set out here.

One may read the Ki as the dissociation constant of the complex between target and ligand, obtained from inhibition or displacement. A high value points to a looser hold on the target.

Test [1] deals with Toxoplasma gondii purine nucleoside phosphorylase (Toxoplasma gondii). Nature of the test: Compound was evaluated for its binding affinity against Toxoplasma gondii purine nucleoside phosphorylase of virulent strain RH (value indicates competitive inhibition).
For test [2] the target is unchanged. The test is described as above. The source holds these as a separate data set.
For test [3] the target is unchanged. In words: Compound was evaluated for its binding affinity against Toxoplasma gondii purine nucleoside phosphorylase from cystic strain ME 49 (value indicates competitive inhibition).
Test [4] has the same target. Nature of the test: Compound was evaluated for its binding affinity against Toxoplasma gondii purine nucleoside phosphorylase from cystic strain ME 49 (value indicates Non competitive inhibition).
Test [5] has the same target. Nature of the test: Compound was evaluated for its binding affinity against Toxoplasma gondii purine nucleoside phosphorylase of virulent strain RH (value indicates Non competitive inhibition).

Consider `O=c1[nH]cnc2c1cnn2[C@@H]1O[C@H](CO)[C@@H](O)[C@H]1O`, for which the inhibitory constant (Ki) in test [1] came to 1800 µM; in test [2] it was 2000 µM. For `O=C1C=CC(=O)c2c1nc(Cc1ccccc1)n2Cc1ccccc1` [1,2-Dibenzyl-1H-benzoimidazole-4,7-dione], the figures for the Ki in test [1] and in test [3] were 670 µM and 350 µM, respectively. For the compound `O=C1C=CC(=O)c2c1ncn2Cc1ccccc1F` [1-(2-Fluoro-benzyl)-1H-benzoimidazole-4,7-dione], the Ki in test [4] was 1500 µM; in test [5], 1480 µM. Taken in the same sequence, the figures for `O=C1C=CC(=O)c2c1ncn2Cc1cccc(F)c1` [1-(3-Fluoro-benzyl)-1H-benzoimidazole-4,7-dione] were 520 µM and 990 µM. In the case of `O=C1C=CC(=O)c2c1ncn2Cc1ccc(F)cc1` [1-(4-Fluoro-benzyl)-1H-benzoimidazole-4,7-dione], the inhibitory constant (Ki) in test [4] stood at 990 µM; in test [5], 780 µM. Consider `Cc1nc2c(n1Cc1ccccc1)C(=O)C=CC2=O` [1-Benzyl-2-methyl-1H-benzoimidazole-4,7-dione], for which the Ki was 300 µM in test [3] and 1050 µM in test [2]. For the compound `CCCCn1cnc2c1C(=O)C=CC2=O` [1-Butyl-1H-benzoimidazole-4,7-dione], the inhibition constant (Ki) in test [4] came out at 560 µM; in test [5], 2960 µM. Regarding `Cn1cnc2c1C(=O)C=CC2=O` [1-Methyl-1H-benzoimidazole-4,7-dione], the Ki in test [5] came out at 2210 µM. Turning to `O=C1C=CC(=O)c2[nH]cnc21` [1H-Benzoimidazole-4,7-dione], the inhibition constant Ki amounted to 550 µM in test [4] and 1650 µM in test [5].
